Measurements published in the kinase profiling compilation of Christmann-Franck et al. (2016).
Several values for one entry are separate records, joined by “and”; a condition that tells them apart may be missing. Equal entries are not always repeated.

Key:
Test in all cases: radiometric filter-binding kinase assay, Kinase HotSpot
Details in all cases: compound 0.5 µM; ATP 10 µM
[1] = target: WEE1 (human) (UniProt P30291)
[2] = target: NEK7 (human) (UniProt Q8TDX7)
[3] = target: SLK (human) (UniProt Q9H2G2)
[4] = target: MARK2 (human) (UniProt Q7KZI7)
[5] = target: NTRK1 (human) (UniProt P04629)
[6] = target: MAP3K11 (human) (UniProt Q16584)
[7] = target: SRPK3 (human) (UniProt Q9UPE1)
[8] = target: HCK (human) (UniProt P08631)
[9] = target: CAMKK2 (human) (UniProt Q96RR4)
[10] = target: PAK2 (human) (UniProt Q13177)
[11] = target: FGFR3 (human) (UniProt P22607)
[12] = target: FLT1 (human) (UniProt P17948)
[13] = target: AKT1 (human) (UniProt P31749)
[14] = target: FGFR2 (human) (UniProt P21802)
[15] = target: GRK6 (human) (UniProt P43250)
[16] = target: PASK (human) (UniProt Q96RG2)
[17] = target: STK16 (human) (UniProt O75716)
[18] = target: DYRK1A (human) (UniProt Q13627)
[19] = target: MAPK12 (human) (UniProt P53778)
[20] = target: CAMK1G (human) (UniProt Q96NX5)
[21] = target: BRSK2 (human) (UniProt Q8IWQ3)
[22] = target: SGK2 (human) (UniProt Q9HBY8)
[23] = target: MAPK14 (human) (UniProt Q16539)
[24] = target: AURKA (human) (UniProt O14965)
[25] = target: TTK (human) (UniProt P33981)
[26] = target: RAF1 (human) (UniProt P04049)
[27] = target: ALK (human) (UniProt Q9UM73)
[28] = target: CDK5 CDK5R1 p25 (human) (UniProt Q00535+Q15078)
[29] = target: EPHB3 (human) (UniProt P54753)
[30] = target: NUAK1 (human) (UniProt O60285)
[31] = target: KDR (human) (UniProt P35968)
[32] = target: DMPK (human) (UniProt Q09013)
[33] = target: JAK1 JH1 catalytic (human) (UniProt P23458)
[34] = target: STK39 (human) (UniProt Q9UEW8)
[35] = target: PRKG1 (human) (UniProt Q13976)
[36] = target: ABL1 (human) (UniProt P00519)
[37] = target: EPHB1 (human) (UniProt P54762)
[38] = target: CDC42BPA (human) (UniProt Q5VT25)
[39] = target: PRKCE (human) (UniProt Q02156)
[40] = target: CDK3 CCNE1 (human) (UniProt Q00526+P24864)
[41] = target: WNK2 (human) (UniProt Q9Y3S1)
[42] = target: PHKG2 (human) (UniProt P15735)

Chain of PASK (human) (Q96RG2 whole entry, looked up): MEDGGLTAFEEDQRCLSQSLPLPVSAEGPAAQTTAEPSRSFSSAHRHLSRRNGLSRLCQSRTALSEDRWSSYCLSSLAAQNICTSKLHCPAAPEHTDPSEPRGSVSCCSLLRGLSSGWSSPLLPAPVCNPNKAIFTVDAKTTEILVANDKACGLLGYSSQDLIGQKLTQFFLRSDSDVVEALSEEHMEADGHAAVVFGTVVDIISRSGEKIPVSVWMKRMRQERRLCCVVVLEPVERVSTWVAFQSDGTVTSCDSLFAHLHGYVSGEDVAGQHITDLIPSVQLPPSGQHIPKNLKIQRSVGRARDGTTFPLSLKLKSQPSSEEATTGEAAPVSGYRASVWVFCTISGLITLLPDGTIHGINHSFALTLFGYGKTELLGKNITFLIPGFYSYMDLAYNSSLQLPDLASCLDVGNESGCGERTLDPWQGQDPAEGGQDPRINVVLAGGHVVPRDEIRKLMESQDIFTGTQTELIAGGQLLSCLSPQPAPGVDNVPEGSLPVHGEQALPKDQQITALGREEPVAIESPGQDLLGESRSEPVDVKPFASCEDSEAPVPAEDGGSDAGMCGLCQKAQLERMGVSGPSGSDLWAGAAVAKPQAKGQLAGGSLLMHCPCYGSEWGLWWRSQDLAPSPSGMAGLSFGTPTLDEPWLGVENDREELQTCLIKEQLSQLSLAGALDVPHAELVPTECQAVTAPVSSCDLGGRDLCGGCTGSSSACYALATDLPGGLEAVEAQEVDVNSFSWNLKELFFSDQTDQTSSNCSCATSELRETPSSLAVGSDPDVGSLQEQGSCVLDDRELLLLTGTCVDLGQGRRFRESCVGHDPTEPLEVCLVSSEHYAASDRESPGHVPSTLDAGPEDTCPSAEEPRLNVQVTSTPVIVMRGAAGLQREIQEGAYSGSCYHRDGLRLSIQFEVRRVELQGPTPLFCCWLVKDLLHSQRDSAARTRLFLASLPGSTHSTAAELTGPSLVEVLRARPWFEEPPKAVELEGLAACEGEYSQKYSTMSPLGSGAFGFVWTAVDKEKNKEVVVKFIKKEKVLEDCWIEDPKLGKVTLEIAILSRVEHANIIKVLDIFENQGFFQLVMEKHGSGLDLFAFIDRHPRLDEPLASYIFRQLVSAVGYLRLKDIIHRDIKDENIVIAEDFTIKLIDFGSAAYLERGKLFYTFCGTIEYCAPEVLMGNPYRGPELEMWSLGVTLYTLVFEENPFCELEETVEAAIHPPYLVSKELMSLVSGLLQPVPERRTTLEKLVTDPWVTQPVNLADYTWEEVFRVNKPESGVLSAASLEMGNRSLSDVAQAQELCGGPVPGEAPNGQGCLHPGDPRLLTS
Chain of CDK5 CDK5R1 p25 (human) (Q00535 whole entry, looked up): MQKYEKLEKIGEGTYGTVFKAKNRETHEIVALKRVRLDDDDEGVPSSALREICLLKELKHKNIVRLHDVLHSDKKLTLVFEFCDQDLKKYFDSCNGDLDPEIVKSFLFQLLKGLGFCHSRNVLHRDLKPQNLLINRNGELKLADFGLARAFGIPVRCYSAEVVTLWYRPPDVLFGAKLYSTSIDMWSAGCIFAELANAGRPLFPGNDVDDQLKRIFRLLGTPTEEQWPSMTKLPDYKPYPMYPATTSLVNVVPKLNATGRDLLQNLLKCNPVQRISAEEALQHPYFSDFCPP
Chain of CDK5 CDK5R1 p25 (human) (Q15078 whole entry, looked up): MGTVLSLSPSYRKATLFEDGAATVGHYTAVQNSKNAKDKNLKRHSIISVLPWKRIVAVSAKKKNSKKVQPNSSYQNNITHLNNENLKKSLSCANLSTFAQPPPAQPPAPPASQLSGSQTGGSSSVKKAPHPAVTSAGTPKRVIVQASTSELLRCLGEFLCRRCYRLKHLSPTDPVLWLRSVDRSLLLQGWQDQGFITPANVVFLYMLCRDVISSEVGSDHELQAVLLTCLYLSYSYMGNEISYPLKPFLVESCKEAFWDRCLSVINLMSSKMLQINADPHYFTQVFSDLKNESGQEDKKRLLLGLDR
Chain of FLT1 (human) (P17948 whole entry, looked up): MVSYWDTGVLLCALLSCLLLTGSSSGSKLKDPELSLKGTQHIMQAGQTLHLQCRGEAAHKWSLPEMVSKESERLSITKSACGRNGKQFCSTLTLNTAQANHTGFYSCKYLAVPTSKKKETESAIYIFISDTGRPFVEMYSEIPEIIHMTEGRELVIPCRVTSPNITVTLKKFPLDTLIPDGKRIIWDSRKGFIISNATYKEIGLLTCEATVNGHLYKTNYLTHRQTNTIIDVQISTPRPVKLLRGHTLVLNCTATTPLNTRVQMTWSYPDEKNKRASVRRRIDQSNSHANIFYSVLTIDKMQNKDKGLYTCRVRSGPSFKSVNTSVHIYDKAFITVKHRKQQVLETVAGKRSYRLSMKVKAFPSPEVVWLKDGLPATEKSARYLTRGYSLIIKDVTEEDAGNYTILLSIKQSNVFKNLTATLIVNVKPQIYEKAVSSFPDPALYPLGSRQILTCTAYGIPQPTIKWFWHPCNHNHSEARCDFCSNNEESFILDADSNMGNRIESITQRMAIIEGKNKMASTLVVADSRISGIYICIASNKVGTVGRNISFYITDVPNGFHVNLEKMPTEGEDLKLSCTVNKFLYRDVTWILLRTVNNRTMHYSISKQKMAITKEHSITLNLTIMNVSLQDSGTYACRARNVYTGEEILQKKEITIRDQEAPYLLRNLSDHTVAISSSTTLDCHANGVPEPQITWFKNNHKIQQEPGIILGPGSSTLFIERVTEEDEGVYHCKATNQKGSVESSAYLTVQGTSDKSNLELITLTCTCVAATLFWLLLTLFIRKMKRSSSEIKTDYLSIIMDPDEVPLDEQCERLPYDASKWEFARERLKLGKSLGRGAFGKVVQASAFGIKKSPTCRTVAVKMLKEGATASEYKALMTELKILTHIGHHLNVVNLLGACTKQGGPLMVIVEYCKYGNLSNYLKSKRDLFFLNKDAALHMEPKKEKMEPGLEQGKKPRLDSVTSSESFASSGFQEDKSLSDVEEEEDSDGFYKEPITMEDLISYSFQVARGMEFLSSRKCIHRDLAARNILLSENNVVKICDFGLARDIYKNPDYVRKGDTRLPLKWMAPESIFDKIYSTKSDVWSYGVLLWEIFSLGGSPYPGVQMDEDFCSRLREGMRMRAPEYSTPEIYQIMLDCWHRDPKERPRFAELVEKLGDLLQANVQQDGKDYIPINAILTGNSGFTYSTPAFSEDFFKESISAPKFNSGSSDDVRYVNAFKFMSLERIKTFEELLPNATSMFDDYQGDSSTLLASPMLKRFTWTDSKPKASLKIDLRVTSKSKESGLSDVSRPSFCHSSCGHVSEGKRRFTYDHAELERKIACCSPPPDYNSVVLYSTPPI
Chain of KDR (human) (P35968 whole entry, looked up): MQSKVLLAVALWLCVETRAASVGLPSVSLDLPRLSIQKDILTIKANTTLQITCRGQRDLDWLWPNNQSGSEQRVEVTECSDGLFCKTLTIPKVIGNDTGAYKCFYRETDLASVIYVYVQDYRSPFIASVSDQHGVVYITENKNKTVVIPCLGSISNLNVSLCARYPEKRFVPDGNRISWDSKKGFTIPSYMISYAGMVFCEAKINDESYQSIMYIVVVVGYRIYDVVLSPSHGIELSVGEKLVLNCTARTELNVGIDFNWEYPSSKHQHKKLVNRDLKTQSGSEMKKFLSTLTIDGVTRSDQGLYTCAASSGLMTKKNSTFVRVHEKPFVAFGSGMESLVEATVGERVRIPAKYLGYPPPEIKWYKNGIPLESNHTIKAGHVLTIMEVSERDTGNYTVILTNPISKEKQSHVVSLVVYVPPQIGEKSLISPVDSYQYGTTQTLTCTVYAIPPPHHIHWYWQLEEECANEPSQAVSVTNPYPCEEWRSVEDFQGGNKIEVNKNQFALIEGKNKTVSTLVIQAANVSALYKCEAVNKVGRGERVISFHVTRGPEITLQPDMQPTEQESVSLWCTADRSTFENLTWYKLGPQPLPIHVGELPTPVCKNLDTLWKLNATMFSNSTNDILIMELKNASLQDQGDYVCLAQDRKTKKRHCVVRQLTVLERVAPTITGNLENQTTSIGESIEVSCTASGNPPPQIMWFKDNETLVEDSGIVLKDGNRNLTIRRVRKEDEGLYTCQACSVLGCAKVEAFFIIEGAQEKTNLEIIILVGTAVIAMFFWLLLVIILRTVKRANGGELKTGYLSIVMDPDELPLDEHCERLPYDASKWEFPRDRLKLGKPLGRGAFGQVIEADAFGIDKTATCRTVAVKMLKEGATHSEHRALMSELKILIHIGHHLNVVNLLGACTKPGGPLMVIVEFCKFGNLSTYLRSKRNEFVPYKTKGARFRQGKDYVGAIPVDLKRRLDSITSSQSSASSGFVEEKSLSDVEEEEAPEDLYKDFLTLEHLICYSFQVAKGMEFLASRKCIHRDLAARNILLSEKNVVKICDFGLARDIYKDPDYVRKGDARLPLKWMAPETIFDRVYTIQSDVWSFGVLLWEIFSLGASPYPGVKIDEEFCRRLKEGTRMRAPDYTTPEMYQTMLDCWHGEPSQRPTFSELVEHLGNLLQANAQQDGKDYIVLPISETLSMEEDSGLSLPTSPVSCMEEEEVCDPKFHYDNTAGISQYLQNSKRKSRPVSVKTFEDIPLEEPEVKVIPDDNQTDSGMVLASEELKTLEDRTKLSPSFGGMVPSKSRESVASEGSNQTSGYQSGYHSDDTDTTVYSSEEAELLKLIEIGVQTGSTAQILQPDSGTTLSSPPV
Chain of SGK2 (human) (Q9HBY8 whole entry, looked up): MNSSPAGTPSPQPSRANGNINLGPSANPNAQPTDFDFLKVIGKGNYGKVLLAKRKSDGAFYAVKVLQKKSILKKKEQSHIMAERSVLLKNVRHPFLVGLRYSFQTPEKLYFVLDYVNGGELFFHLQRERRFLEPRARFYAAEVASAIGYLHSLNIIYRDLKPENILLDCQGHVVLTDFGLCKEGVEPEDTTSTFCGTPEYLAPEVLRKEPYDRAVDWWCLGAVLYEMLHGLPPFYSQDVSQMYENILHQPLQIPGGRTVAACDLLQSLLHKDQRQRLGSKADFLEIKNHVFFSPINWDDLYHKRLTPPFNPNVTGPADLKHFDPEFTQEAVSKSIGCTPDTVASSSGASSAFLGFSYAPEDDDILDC

`O=C1NC(=O)c2cc(Nc3ccc(F)cc3)c(Nc3ccc(F)cc3)cc21` gave a residual activity [1] of 99.6%, a residual activity [2] of 103% and a residual activity [3] of 65.5%. The residual activity [4] was 98.2%, the residual activity [5] was 93.6% and the residual activity [6] was 98.4%. The residual activity [7] was 98%, the residual activity [8] was 88.3% and the residual activity [9] was 88.3%. It also gave a residual activity [10] of 98.5%, a residual activity [11] of 99.7% and a residual activity [12] of 81.5%. For the same molecule, the residual activity [13] was 94.8%, the residual activity [14] was 102% and the residual activity [15] was 98.7%. The residual activity [16] was 91.3%, the residual activity [17] was 85.8% and the residual activity [18] was 95.6%. The residual activity [19] was 93.6%, the residual activity [20] was 106% and the residual activity [21] was 96.8%. It also gave a residual activity [22] of 99.7%, a residual activity [23] of 88.3% and a residual activity [24] of 92.7%. The residual activity [25] was 95.4%, the residual activity [26] was 81.9% and the residual activity [27] was 92.6%. It also gave a residual activity [28] of 85.9%, a residual activity [29] of 94.7% and a residual activity [30] of 94%. The residual activity [31] was 97.9%, the residual activity [32] was 108% and the residual activity [33] was 91.5%. The residual activity [34] was 89.2%, the residual activity [35] was 103% and 94.3% and the residual activity [36] was 95.7%. For the same molecule, the residual activity [37] was 103%, the residual activity [38] was 92.3% and the residual activity [39] was 97.8%. It also gave a residual activity [40] of 98.9%, a residual activity [41] of 110% and a residual activity [42] of 97.1%.

`Cn1cc(/C=C2\C(=O)Nc3ccc(S(N)(=O)=O)cc32)c2ccccc21` gave a residual activity [1] of 82.3%, a residual activity [2] of 101% and a residual activity [3] of 28.6%. The residual activity [4] was 45.5%, the residual activity [5] was 6.15% and the residual activity [6] was 9.89%. For the same molecule, the residual activity [7] was 88.5%, the residual activity [8] was 50% and the residual activity [9] was 34.4%. The residual activity [10] was 79.2%, the residual activity [11] was 33.8% and the residual activity [12] was 70.1%. It also gave a residual activity [13] of 105%, a residual activity [14] of 50.5% and a residual activity [15] of 47.2%. It also gave a residual activity [16] of 84.8%, a residual activity [17] of 78.7% and a residual activity [18] of 92.2%. It also gave a residual activity [19] of 101%, a residual activity [20] of 89.2% and a residual activity [21] of 65.5%. It also gave a residual activity [22] of 80.7%, a residual activity [23] of 123% and a residual activity [24] of 20%. The residual activity [25] was 97.3%, the residual activity [26] was 102% and the residual activity [27] was 72.1%. It also gave a residual activity [28] of 58%, a residual activity [29] of 93.2% and a residual activity [30] of 5.88%. It also gave a residual activity [31] of 74.3%, a residual activity [32] of 106% and a residual activity [33] of 83.9%. The residual activity [34] was 79.3%, the residual activity [35] was 81.1% and 87.2% and the residual activity [36] was 52.5%. The residual activity [37] was 68.7%, the residual activity [38] was 70.7% and the residual activity [39] was 77.3%. The residual activity [40] was 90.3%, the residual activity [41] was 97.7% and the residual activity [42] was 52%.

For `O=c1c(-c2ccc(F)cc2)c(-c2ccncc2)[nH]n1-c1ccc(Cl)cc1`, the residual activity [1] was 81.6%, the residual activity [2] was 90.1% and the residual activity [3] was 98.2%. The residual activity [4] was 88.8%, the residual activity [5] was 95.5% and the residual activity [6] was 98%. It also gave a residual activity [7] of 92.2%, a residual activity [8] of 91.1% and a residual activity [9] of 83%. It also gave a residual activity [10] of 102%, a residual activity [11] of 88.1% and a residual activity [12] of 81.3%. The residual activity [13] was 96.4%, the residual activity [14] was 94% and the residual activity [15] was 90.1%. For the same molecule, the residual activity [16] was 93.6%, the residual activity [17] was 100% and the residual activity [18] was 89.8%. The residual activity [19] was 85.2%, the residual activity [20] was 104% and the residual activity [21] was 90.8%. It also gave a residual activity [22] of 94.3%, a residual activity [23] of 11.2% and a residual activity [24] of 94%. It also gave a residual activity [25] of 110%, a residual activity [26] of 61.4% and a residual activity [27] of 83.8%. The residual activity [28] was 76.3%, the residual activity [29] was 92.2% and the residual activity [30] was 89.1%. It also gave a residual activity [31] of 90.6%, a residual activity [32] of 87.6% and a residual activity [33] of 103%. The residual activity [34] was 128%, the residual activity [35] was 106% and 95.6% and the residual activity [36] was 98.1%. For the same molecule, the residual activity [37] was 90.5%, the residual activity [38] was 98% and the residual activity [39] was 96.7%. It also gave a residual activity [40] of 86.9%, a residual activity [41] of 112% and a residual activity [42] of 121%.

`Cc1cc(Nc2nc(-c3ccccc3)nc3ccccc23)n[nH]1` showed a residual activity [1] of 88%, a residual activity [2] of 97.7% and a residual activity [3] of 42.2%. It also gave a residual activity [4] of 89.6%, a residual activity [5] of 14.6% and a residual activity [6] of 18.1%. The residual activity [7] was 61.5%, the residual activity [8] was 77.3% and the residual activity [9] was 88.6%. It also gave a residual activity [10] of 91.8%, a residual activity [11] of 71.7% and a residual activity [12] of 78.7%. It also gave a residual activity [13] of 107%, a residual activity [14] of 83.7% and a residual activity [15] of 75.8%. The residual activity [16] was 96.4%, the residual activity [17] was 24.7% and the residual activity [18] was 104%. For the same molecule, the residual activity [19] was 86.8%, the residual activity [20] was 101% and the residual activity [21] was 61.4%. The residual activity [22] was 99.7%, the residual activity [23] was 103% and the residual activity [24] was 19.8%. For the same molecule, the residual activity [25] was 102%, the residual activity [26] was 99.8% and the residual activity [27] was 75.9%. For the same molecule, the residual activity [28] was 98.7%, the residual activity [29] was 86.5% and the residual activity [30] was 3.88%. The residual activity [31] was 36.5%, the residual activity [32] was 100% and the residual activity [33] was 83.7%. The residual activity [34] was 118%, the residual activity [35] was 94.9% and 97.3% and the residual activity [36] was 75.4%. The residual activity [37] was 93.1%, the residual activity [38] was 108% and the residual activity [39] was 87.1%. It also gave a residual activity [40] of 85%, a residual activity [41] of 82.6% and a residual activity [42] of 86.3%.
